Each structure is given as a SMILES string. Converted amounts (≈) assume the structure as drawn.

What all share (type): cell-based
One assay has as its system Balb/c 3T3 fibroblasts. Nature of the assay: Norfloxacin 3T3 phototoxicity test with or without DHQ treatment (Neutral Red uptake). Conditions: for Photoprotective effect against norfloxacin phototoxicity: increasing concentrations in treatment medium, UVA. As to the method:
The phototoprotective potential of Dihydroquercetin was assessed using a method based on Norfloxacin phototoxicity test on fibroblasts […]. […] The study was aimed at evaluating the photoprotective potential of one test item, dihydroquercetin, against the deleterious effects of UVA exposure in presence of phototoxic substances such as Norfloxacin or chlorpromazin. Briefly, Balb/c 3T3 fibroblasts were maintained in culture for 48 h for formation of monolayers. Norfloxacin 3T3 phototoxicity test was performed in presence or absence of DHQ treatment in different conditions. After another 24 h incubation period, cell viability was determined by Neutral Red uptake. For each condition, cell viability was expressed as percentage relative to untreated solvent controls. Then the dose-response curves (at the EC50 level) obtained for Norfloxacin with or without DHQ treatment was compared to assess DHQ photoprotective potential.

For assay [1], the system named is human neutrophils. Nature of the assay: Polymorphonuclear neutrophils oxidative burst, ROS production by chemiluminescence (PMA activation). Conditions: neutrophils primed with TNF-α, activation by 100 ng/ml PMA; luminol chemiluminescence; FIG. 5. As to the method:
ROS production is measured using a chemiluminescence standard procedure: briefly, one hundred microliters of human neutrophils (4×10^6/mL) were primed with TNF-α at 37° C. for 25 minutes. 100 μL luminol (1 μM final concentration) and HRP (62.5 U/mL final concentration) in HBSS were added, and 150-μL aliquots were transferred to a prewarmed 96-well luminometer plate. Light emission was recorded by a Berthold MicroLumat Plus luminometer (Berthold Technologies, Hartfordshire, United Kingdom) (data output is in relative light units per second)

Another assay deals with NIH-3T3 fibroblasts. Briefly: Chlorpromazine (CPZ)-induced cell phototoxicity under UVA, protective effect. From the text:
Chlorpromazine (CPZ) is a neuroleptic drug widely used in medicine because of its tranquilizing and antipsychotic properties. CPZ often causes side effects including cutaneous photosensitization and ocular damage.

For assay [2], the system named is human neutrophils. Nature of the assay: Neutrophils degranulation assessed by myeloperoxidase (MPO) release, fMLP stimulation, MPO enzyme immunoassay. As to conditions: fMLP 45 minutes at 37° C. The procedure:
Neutrophils were stimulated with formyl-methionyl-leucyl-phenylalanine for 45 minutes at 37° C. MPO released from neutrophils were assayed by using an MPO enzyme immunoassay. [table]

Turning to `CCn1cc(C(=O)O)c(=O)c2cc(F)c(N3CCNCC3)cc21` [NFX, norfloxacin], the EC50 in the assay with Balb/c 3T3 fibroblasts (Mus musculus, BALB/c3T3, light or radiation study, No DHQ treatment, UVA exposure, read-out: NFX EC 50) worked out at 55 µg/mL (≈ 172 µM).

In the case of `O=C1c2c(O)cc(O)cc2O[C@H](c2ccc(O)c(O)c2)[C@H]1O` [DHQ, Dihydroquercetin], in the assay on human neutrophils [1], the “Effect on reactive oxygen species (ROS) production” value was “Inhibitory effect”. Moreover, the “Protection against phototoxicity induced by chlorpromazine+UVA” value in the assay with NIH-3T3 fibroblasts (NIH-3T3 fibroblasts, FIG. 4) was “efficiently protects”. In the assay on Balb/c 3T3 fibroblasts, the “Photoprotective effect against norfloxacin phototoxicity” value is given as “Dose-dependent photoprotective effect”.

As to `Nc1ccc(C(=O)O)cc1` [PABA, para-aminobenzoic acid], the “Photoprotective effect against norfloxacin phototoxicity” value with Balb/c 3T3 fibroblasts is given as “no effect”.

Turning to `CC(C)=CCC[C@](C)(O)C1CC=C(C)CC1` (stereo partly shown) [Bisabolol], the MPO release is 810 U/mL with human neutrophils [2] (Bisabolol 20 μM), 500 U/mL with human neutrophils [2] (Bisabolol 40 μM), 250 U/mL in the assay on human neutrophils [2] (Bisabolol 100 μM) and 248 U/mL with human neutrophils [2] (Bisabolol 200 μM).

Consider `CN(C)CCCN1c2ccccc2Sc2ccc(Cl)cc21` [CPZ, Chlorpromazine, reference compound], for which the IC50 in the assay on NIH-3T3 fibroblasts (Mus musculus, NIH3T3, light or radiation study, control experiment (no treatment), UVA) is 0.33 µg/mL (≈ 1.03 µM).

As a reminder, the IC50 is the midpoint of a concentration-inhibition curve. A higher IC50 goes with weaker potency in that assay.

The values above are taken from patent US20210113518A1, “Composition And Use Thereof Against Drugs Induced Phototoxicity” (AC BIOSCIENCE SA, priority 2018, published 2021).
